The source of these data is BindingDB's records for doi:10.1021/jm00095a005 (Pfizer, 1992).

This assay addresses Platelet-activating factor receptor (Oryctolagus cuniculus). The experiment in a line: In vitro inhibition of PAF-induced aggregation of rabbit washed platelets.
For `CCOC(=O)C1=C(c2ccc(-n3c(C)nc4cnccc43)cc2)N=C(C)C(C(=O)OC(C)(C)C)C1c1ccccc1Cl` (stereo unspecified), half-maximal inhibition (IC50) required 1.3 nM. That is a single-digit nanomolar value.

Turning to `CCOC(=O)C1=C(c2ccc(-n3c(C)nc4ccncc43)cc2)N=C(C)C(C(=O)Nc2ccccn2)C1c1ccccc1Cl` (stereo unspecified), half-maximal inhibition (IC50) required 22 nM.

Turning to `CCOC(=O)C1=C(c2ccc(-n3c(C(F)(F)F)nc4cnccc43)cc2)N=C(C)C(C(=O)Nc2ccccn2)C1c1ccccc1Cl` (stereo unspecified), the IC50 (as a rule, the concentration at which inhibition is half-maximal) was found to be 30 nM. The IC50 values of the last two compounds are within 1.5-fold of each other.

`CCOC(=O)C1=C(c2ccc(-c3ocnc3C)cc2)N=C(C)C(C(=O)Nc2ccccn2)C1c1ccccc1Cl` (stereo unspecified) yielded an IC50 of 200 nM.

As for `CCOC(=O)C1=C(c2ccc(-n3c(C)nc4cnccc43)cc2)N=C(C)C(C(N)=O)C1c1ccccc1Cl` (stereo unspecified), the IC50 amounted to 5.6 nM.

In turn, `CCOC(=O)C1=C(c2ccc(-n3ccnc3C)cc2)N=C(C)C(C(=O)Nc2ccccn2)C1c1ccccc1Cl` (stereo unspecified) returned an IC50 of 23 nM. This IC50 is about 4.1-fold higher than that of the compound before.

As to `CCOC(=O)C1=C(c2ccc(-n3c(C)nc4cnccc43)cc2)N=C(C)C(C(=O)O)C1c1ccccc1Cl` (stereo unspecified), the IC50 was 14 nM. Compared with the last compound, the IC50 is about 1.6-fold lower.

The compound `CCOC(=O)C1=C(c2ccc(-n3c(C)nc4c(OC)ncnc43)cc2)N=C(C)C(C(=O)Nc2ccccn2)C1c1ccccc1Cl` (stereo unspecified) displayed a half-maximal inhibitory concentration (IC50) of 270 nM.

Compound `CCOC(=O)C1=C(c2ccc(-n3c(C)nc4cnccc43)cc2)N=C(C)C(C(=O)OC)C1c1ccccc1Cl` (stereo unspecified) had a half-inhibitory concentration (IC50) of 1.6 nM.

In the case of `CCOC(=O)C1=C(c2ccc(-n3c(C)nc4cnccc43)cc2)N=C(C)C(C(=O)NC(C)(C)C)C1c1ccccc1Cl` (stereo unspecified), the IC50 was determined as 3.2 nM.

Take `CCOC(=O)C1=C(c2ccc(-n3c(C)nc4cnccc43)cc2)N=C(C)C(C(=O)Nc2ccccn2)C1c1ccc(C#N)cc1` (stereo unspecified): half-maximal inhibition (IC50) was put at 25 nM.

With `CCOC(=O)C1=C(c2ccc(-n3nc(C)cc3C)cc2)N=C(C)C(C(=O)Nc2ccccn2)C1c1ccccc1Cl` (stereo unspecified), the IC50 is > 10000 nM.

Consider `CCOC(=O)C1=C(c2ccc(-n3c(C)nnc3C)cc2)N=C(C)C(C(=O)Nc2ccccn2)C1c1ccccc1Cl` (stereo unspecified), for which 12 nM corresponded to half-maximal inhibition (IC50). That is a double-digit nanomolar value.

Compound `CCOC(=O)C1=C(c2ccc(-c3c(C)nc4ccccn34)cc2)N=C(C)C(C(=O)Nc2ccccn2)C1c1ccccc1Cl` (stereo unspecified) displayed an IC50 of 2.1 nM.

In turn, `CCOC(=O)C1=C(c2ccc(-n3c(C)nc4cnccc43)cc2)N=C(C)C(C(=O)Nc2ccccn2)C1c1cccnc1` (stereo unspecified) showed a concentration for half-maximal inhibition (IC50) of 33 nM.

In turn, `CCOC(=O)C1=C(c2ccc(-n3c(C)nc4cnccc43)cc2)N=C(C)C(C(=O)Nc2ccccn2)C1c1ccccn1` (stereo unspecified) displayed a 50% inhibitory concentration (IC50) of 14 nM.

Compound `CCOC(=O)C1=C(c2ccc(-n3cnc(C)c3)cc2)N=C(C)C(C(=O)Nc2ccccn2)C1c1ccccc1Cl` (stereo unspecified) returned an IC50 of 580 nM.

In turn, `CCOC(=O)C1=C(c2ccc(-c3c(C)nc4sccn34)cc2)NC(C)=C(C(=O)Nc2ccccn2)C1c1ccccc1Cl` (stereo unspecified) displayed an IC50 of 5 nM. This IC50 is about 120-fold lower than that of the compound before.

For the compound `CCOC(=O)C1=C(c2ccc(-n3c(C)nc4cnccc43)cc2)N=C(C)C(C(=O)Nc2ccccn2)C1c1cccnc1Cl` (stereo unspecified), half-maximal inhibition (IC50) required 13 nM.

Take `CCOC(=O)C1=C(c2ccc(-n3cc(C)nc3C)cc2)N=C(C)C(C(=O)Nc2ccccn2)C1c1ccccc1Cl` (stereo unspecified): inhibition was half-maximal at 13 nM (IC50).

Consider `CCOC(=O)C1=C(c2ccc(-n3c(C)nc4cnccc43)cc2)N=C(C)C(C(=O)Nc2ccccn2)C1c1csc2ccccc12` (stereo unspecified), for which the 50% inhibitory concentration (IC50) is 3.1 nM.

As to `CCOC(=O)C1=C(c2ccc(-n3c(C)nc4cnccc43)cc2)N=C(C)C(C(=O)Nc2ccccn2)C1c1cccc2c1OCO2` (stereo unspecified), it took 3.2 nM to reach half-maximal inhibition (IC50).

`CCOC(=O)C1=C(c2ccc(-n3c(C)nc4c(C)nc(C)cc43)cc2)N=C(C)C(C(=O)Nc2ccccn2)C1c1ccccc1Cl` (stereo unspecified) gave an IC50 of 5.9 nM. Against the preceding compound, the IC50 is about 1.8-fold higher.

The compound `CCCCc1nc2cnccc2n1-c1ccc(C2=C(C(=O)OCC)C(c3ccccc3Cl)C(C(=O)Nc3ccccn3)C(C)=N2)cc1` (stereo unspecified) returned an IC50 of 190 nM.

Turning to `CCOC(=O)C1=C(c2ccc(-n3c(C)nc4cnccc43)cc2)N=C(C)C(C(=O)Nc2ccccn2)C1c1ccccc1OC(F)(F)F` (stereo unspecified), the half-inhibitory concentration (IC50) came out at 2.3 nM.

The compound `CCOC(=O)C1=C(c2ccc(-n3c(C)nc4cccnc43)cc2)N=C(C)C(C(=O)Nc2ccccn2)C1c1ccccc1Cl` (stereo unspecified) registered an IC50 of 28 nM.
